Data as given in patent US11092532B2, “Method and device for label-free, high throughput holographic screening and enumeration of tumor cells in blood” (Texas Tech University System, priority 2017, dated 2021).

What was measured:
[1] = test system: breast cancer cells MCF7; assay: inline-DHM cytometry for drug response analysis; format: cell-based
Excerpt: Briefly, as shown in FIG. 1A the in-line DHM arrangement consists of a laser, a spatial filter and collimator assembly, and an inverted optical microscope (IX-71, Olympus Inc.). A He—Ne laser (10 mW, λ, =0.6328 μm, Thorlabs) is used as a light source, operating in continuous wave (CW) mode. The laser beam is filtered and expanded by a spatial filter assembly consisting of a microscope objective (10×, NA=0.25; Thorlabs) and a pinhole (25 μm diameter). The expanded beam is then collimated using a plano-convex lens (focal length, f=100 mm, Thorlabs). The diameter of the collimated beam is approximately 5 mm. This collimated beam of laser light illuminates cells or beads flowing in the microfluidic channel. The flow through the channel is generated by a syringe pump (KD Scientific). The cross-sectional dimensions of the channel are 1000(y)×350(z) μm^2. The 2D hologram of cells or beads is generated in the focal plane of the microscope objective (M=10×, NA=0.25; Thorlabs) of the optical microscope. The magnified image of the hologram is recorded on a CMOS camera (Phantom v310, Vision Research) at a resolution of 512×512 (20 μm/pixel) and 12-bit gray level quantization.
The recoded holograms were transferred to a computer for numerical reconstruction and data analysis.
The probability distribution corresponding to maximum intensity (Imax) of center pixel of focused image of breast cancer cells (MCF7) at different doses of doxorubicin (FIG. 9A) 0.0 μM, (FIG. 9B) 0.0001 μM, (FIG. 9C) 0.01 μM, and (FIG. 9D) 0.1 μM.

[2] = test system: breast cancer cell line MCF-7; assay: dose-dependent cytotoxicity, viability analysis using standard epifluorescence microscopy; format: cell-based; conditions: FIG. 8B
Excerpt: The method involves using a microfluidic device with multiple inlets to flow different samples adjacent to each other as shown in FIG. 8A. Since the flow is laminar, there is no mixing and identity of each sample is encoded spatially into the microfluidic device. Integrating DHM into this multi-inlet device, the inventors can capture holograms where each hologram contains information of the multiple samples that are spatially segregated. […] FIG. 8A is an image showing a multiple entry microfluidic device for parallel loading of multiple samples. Red arrows indicate the recording window for DHM cytometry for drug response analysis. […] For example, in drug screening there is a need to conduct dose response analysis where different drug concentrations are used to test their impact on the viability of cells (see FIG. 8B for viability analysis using standard fluorescence imaging). To achieve parallel analysis, cells treated with different doses of drug can be introduced into the multi-inlet device and label-free DHM can be used to obtain dose-response curves. Cell culture and drug treatment can also be conducted in the inlet wells of the device or additional microfluidic devices can be daisy-chained prior to DHM interrogation.

COc1cccc2c1C(=O)c1c(O)c3c(c(O)c1C2=O)C[C@@](O)(C(=O)CO)C[C@@H]3O[C@H]1C[C@H](N)[C@H](O)[C@H](C)O1 [doxorubicin]
maximum intensity (Imax) distribution of focused cell image ([1]; MCF-7 cells treated with 0.0001 μM doxorubicin, FIG. 9B): some are affected and their peak intensity shifts to lower values
maximum intensity (Imax) distribution of focused cell image ([1]; MCF-7 cells treated with 0.01 μM doxorubicin, FIG. 9C): the number of cells showing lower intensity (Imax) increases
maximum intensity (Imax) distribution of focused cell image ([1]; MCF-7 cells treated with 0.1 μM doxorubicin, FIG. 9D): the number of cells showing lower intensity (Imax) increases
cytotoxicity (viability of cells) [2]: dose-dependent cytotoxicity
